According to EP1948196B1, “USE OF TETRAORGANOSILICON COMPOUNDS” (Salama, Zoser B., priority 2005, dated 2007):
Values after ≈ are worked out from the molar mass of the structure shown. Numbered stars: 1 amine (or outer) side, 2 acyl side, 3 side chain; on linkers, the order of the positions; unused ones are H or OH. Bridge positions count the residues as written; N and C are the ends. Peptide text beside a SMILES is read from it. I, II: the chains in the order shown. X2 = c1ccc([Si](O[*:1])(O[*:2])c2ccccc2)cc1

Experiments:
[1] = system: Panc1 Pankreaskrebszellen; test: subG1 apoptotic fraction, propidium iodide, flow cytometry; assay type: cell-based; conditions: 50 µg/ml, 4 Tage
Description: (§1) Die Zellen (IEC6 mausartige Enterozyten; Panc1 Pankreaskrebszellen; Colo205 Kolonkarzinom) wurden mit 50 µg/ml Silanen inkubiert und nach 4-tägiger Aussetzung auf DNA eingefärbt (Propidiumiodid). Die SubG1 Zellteilung wurde mittels Durchflusscytometrie bestimmt.

Colo205 Kolonkarzinom = test: as above; assay type: cell-based; conditions: 50 µg/ml, 4 Tage
Description: as §1

[2] = system: IEC6 mausartige Enterozyten; test: as above; assay type: cell-based; conditions: 50 µg/ml, 4 Tage
Description: as §1

BxPC3 - Pankreaskrebs = test: MTT assay / EZ4U test, 4 days; assay type: cell-based; conditions: Homo sapiens, BXPC-3, read-out: IC50 BxPC3
Description: (§2) Die Silane 1, 5, 9, 10, 11, 13, 15, 16 wurden in Ethanol gelöst und in MTT Assays in einer anfänglichen Konzentration von 200 µg/ml (5 Lösungsschritte 200 - 12.5 µg/ml) verwendet. Die Platten wurde für eine Dauer.von 4 Tagen inkubiert und die Entwicklungsfähigkeit mithilfe des EZ4U Test bestimmt. Die IC50 Werte wurden ausgehend von Dosierungs-Reaktions-Linien berechnet Zelllinien: Colo 205 and HT29 - Kolonkarzinom; BxPC3 and MIAPaCa2 - Pankreaskrebs; CRO2B - karzinoid, A431 Epidermalkarzinom; normale Zellen: WI38 - humane embryonale Fibroblasten; NIH3T3 - mausartige Fibroblasten; IEC6 - mausartige Enterozyten.

HT29 - Kolonkarzinom = test: MTT assay / EZ4U test, 4 days; assay type: cell-based; conditions: Homo sapiens, HT-29, read-out: IC50 HT29
Description: as §2

MIAPaCa2 - Pankreaskrebs = test: MTT assay / EZ4U test, 4 days; assay type: cell-based; conditions: Homo sapiens, MIA PaCa-2, read-out: IC50 MlAPaCa2
Description: as §2

A431 Epidermalkarzinom = test: MTT assay / EZ4U test, 4 days; assay type: cell-based; conditions: Homo sapiens, A-431, read-out: IC50 A431
Description: as §2

[3] = system: NIH3T3 - mausartige Fibroblasten; test: MTT assay / EZ4U test, 4 days; assay type: cell-based; conditions: Mus musculus, NIH3T3, read-out: IC50 NIH3T3
Description: as §2

[4] = system: WI38 - humane embryonale Fibroblasten; test: MTT assay / EZ4U test, 4 days; assay type: cell-based; conditions: Homo sapiens, WI-38, read-out: IC50 WI38
Description: as §2

CRO2B - karzinoid = test: MTT assay / EZ4U test, 4 days; assay type: cell-based; conditions: read-out: IC50 CR02B
Description: as §2

[5] = system: IEC6 - mausartige Enterozyten; test: MTT assay / EZ4U test, 4 days; assay type: cell-based; conditions: Rattus norvegicus, IEC-6, read-out: IC50 IEC6
Description: as §2

colo205 (Kofon-Karzinom) = test: MTT test, triplicate, two-fold dilutions; assay type: cell-based; conditions: Homo sapiens, COLO 205, read-out: IC50 Colo205
Description: (§3) Die Silan wurden in Ethanol aufgelöst und in Zellkulturmedien in Konzentrationen von bis zu 500 µg/ml resuspendiert. Es wurden MTT Tests in dreifacher Ausführung durchgeführt, für welche doppelte Lösungen (7 Schritte) und colo205 (Kofon-Karzinom), BxPC3 (pankreatisches Adenokarzinom) sowie T47D (Brustkrebs) benutzt wurden.

[6] = system: BxPC3 (pankreatisches Adenokarzinom); test: MTT test, triplicate, two-fold dilutions; assay type: cell-based; conditions: Homo sapiens, BXPC-3, read-out: IC50 BxPC3
Description: as §3

T47D (Brustkrebs) = test: MTT test, triplicate, two-fold dilutions; assay type: cell-based; conditions: Homo sapiens, T47D, read-out: IC50 T47D
Description: as §3

Normale Zellen = test: Mean IC50 over all normal cell lines; assay type: cell-based; conditions: read-out: IC50 Normale Zellen (Durchschnitt ± SD)
Description: as §2
(§4) Mittelwerte-IC50 für alle Krebs- oder normalen Zelllinien: […]

Krebszellen = test: Mean IC50 over all cancer cell lines; assay type: cell-based; conditions: read-out: IC50 Krebszellen (Durchschnitt ± SD)
Description: as §2, §4

CCCCCCCCCCCCCCCC(=O)O[Si](CC)(CC)OC(=O)CCCCCCCCCCCCCCC [Si11, Di (hexadecanoyloxy) diethylsilan]
subG1 apoptotische Zellteilung Panc1 [1]: 37,7 ± 1,8 | subG1 apoptotische Zellteilung Colo205 (Colo205 Kolonkarzinom): 3,3 ± 0,14 | subG1 apoptotische Zellteilung IEC6 [2]: 7.0 ± 0,14 | IC50 (BxPC3 - Pankreaskrebs): 20 µg/mL (≈ 33.5 µM) | IC50 (HT29 - Kolonkarzinom): 23.1 µg/mL (≈ 38.7 µM) | IC50 (MIAPaCa2 - Pankreaskrebs): 82.5 µg/mL (≈ 138 µM) | IC50 (A431 Epidermalkarzinom): 21.9 µg/mL (≈ 36.7 µM) | IC50 [3]: 25 µg/mL (≈ 41.9 µM) | IC50 [4]: 23.7 µg/mL (≈ 39.7 µM) | IC50 (CRO2B - karzinoid): 18.9 µg/mL (≈ 31.7 µM) | IC50 [5]: 21.2 µg/mL (≈ 35.5 µM) | IC50 (colo205 (Kofon-Karzinom)): 300 µg/mL (≈ 502 µM) | IC50 [6]: 10 µg/mL (≈ 16.7 µM) | IC50 (T47D (Brustkrebs)): 7 µg/mL (≈ 11.7 µM) | IC50 (Normale Zellen): 23.3 µg/mL (≈ 39 µM) | IC50 (Krebszellen): 21.1 µg/mL (≈ 35.3 µM)

N[C@@H](Cc1ccccc1)C(=O)N[C@@H](Cc1ccccc1)C(=O)N[C@@H](Cc1ccccc1)C(=O)N[C@@H](Cc1ccccc1)C(=O)N[C@@H](Cc1ccccc1)C(=O)N[C@@H](Cc1ccccc1)C(=O)N[C@@H](Cc1ccccc1)C(=O)N[C@@H](Cc1ccccc1)C(=O)N[C@@H](Cc1ccccc1)C(=O)O[Si](OC(=O)[C@H](Cc1ccccc1)NC(=O)[C@H](Cc1ccccc1)NC(=O)[C@H](Cc1ccccc1)NC(=O)[C@H](Cc1ccccc1)NC(=O)[C@H](Cc1ccccc1)NC(=O)[C@H](Cc1ccccc1)NC(=O)[C@H](Cc1ccccc1)NC(=O)[C@H](Cc1ccccc1)NC(=O)[C@@H](N)Cc1ccccc1)(c1ccccc1)c1ccccc1 [Diphenyl bis(nonaphenylalanyl)silylester] (I: H-FFFFFFFFF / II: H-FFFFFFFFF; linker I:C-II:C via X2)
Wirkung auf Plasmozytome (Plasmozytome): zeigen eine Wirkung

N[C@@H](Cc1ccccc1)C(=O)N[C@@H](Cc1ccccc1)C(=O)N[C@@H](Cc1ccccc1)C(=O)O[Si](OC(=O)[C@H](Cc1ccccc1)NC(=O)[C@H](Cc1ccccc1)NC(=O)[C@@H](N)Cc1ccccc1)(c1ccccc1)c1ccccc1 [Diphenyl bis(triphenylalanyl)silylester]
Wirkung auf Plasmozytome (Plasmozytome): zeigen eine Wirkung

N[C@@H](Cc1ccccc1)C(=O)N[C@@H](Cc1ccccc1)C(=O)N[C@@H](Cc1ccccc1)C(=O)N[C@@H](Cc1ccccc1)C(=O)N[C@@H](Cc1ccccc1)C(=O)N[C@@H](Cc1ccccc1)C(=O)N[C@@H](Cc1ccccc1)C(=O)N[C@@H](Cc1ccccc1)C(=O)N[C@@H](Cc1ccccc1)C(=O)N[C@@H](Cc1ccccc1)C(=O)O[Si](OC(=O)[C@H](Cc1ccccc1)NC(=O)[C@H](Cc1ccccc1)NC(=O)[C@H](Cc1ccccc1)NC(=O)[C@H](Cc1ccccc1)NC(=O)[C@H](Cc1ccccc1)NC(=O)[C@H](Cc1ccccc1)NC(=O)[C@H](Cc1ccccc1)NC(=O)[C@H](Cc1ccccc1)NC(=O)[C@H](Cc1ccccc1)NC(=O)[C@@H](N)Cc1ccccc1)(c1ccccc1)c1ccccc1 [Diphenyl bis(decaphenylalanyl) silylester] (I: H-FFFFFFFFFF / II: H-FFFFFFFFFF; linker I:C-II:C via X2)
Wirkung auf Plasmozytome (Plasmozytome): zeigen eine Wirkung

N[C@@H](Cc1ccccc1)C(=O)N[C@@H](Cc1ccccc1)C(=O)N[C@@H](Cc1ccccc1)C(=O)N[C@@H](Cc1ccccc1)C(=O)O[Si](OC(=O)[C@H](Cc1ccccc1)NC(=O)[C@H](Cc1ccccc1)NC(=O)[C@H](Cc1ccccc1)NC(=O)[C@@H](N)Cc1ccccc1)(c1ccccc1)c1ccccc1 [Diphenyl bis(tetraphenylalanyl)silylester]
Wirkung auf Plasmozytome (Plasmozytome): zeigen eine Wirkung

N[C@@H](Cc1ccccc1)C(=O)N[C@@H](Cc1ccccc1)C(=O)N[C@@H](Cc1ccccc1)C(=O)N[C@@H](Cc1ccccc1)C(=O)N[C@@H](Cc1ccccc1)C(=O)N[C@@H](Cc1ccccc1)C(=O)N[C@@H](Cc1ccccc1)C(=O)N[C@@H](Cc1ccccc1)C(=O)O[Si](OC(=O)[C@H](Cc1ccccc1)NC(=O)[C@H](Cc1ccccc1)NC(=O)[C@H](Cc1ccccc1)NC(=O)[C@H](Cc1ccccc1)NC(=O)[C@H](Cc1ccccc1)NC(=O)[C@H](Cc1ccccc1)NC(=O)[C@H](Cc1ccccc1)NC(=O)[C@@H](N)Cc1ccccc1)(c1ccccc1)c1ccccc1 [Diphenyl bis(octaphenylalanyl)silylester] (I: H-FFFFFFFF / II: H-FFFFFFFF; linker I:C-II:C via X2)
Wirkung auf Plasmozytome (Plasmozytome): zeigen eine Wirkung

N[C@@H](Cc1ccccc1)C(=O)N[C@@H](Cc1ccccc1)C(=O)N[C@@H](Cc1ccccc1)C(=O)N[C@@H](Cc1ccccc1)C(=O)N[C@@H](Cc1ccccc1)C(=O)N[C@@H](Cc1ccccc1)C(=O)N[C@@H](Cc1ccccc1)C(=O)O[Si](OC(=O)[C@H](Cc1ccccc1)NC(=O)[C@H](Cc1ccccc1)NC(=O)[C@H](Cc1ccccc1)NC(=O)[C@H](Cc1ccccc1)NC(=O)[C@H](Cc1ccccc1)NC(=O)[C@H](Cc1ccccc1)NC(=O)[C@@H](N)Cc1ccccc1)(c1ccccc1)c1ccccc1 [Diphenyl bis(heptaphenylalanyl)silylester] (I: H-FFFFFFF / II: H-FFFFFFF; linker I:C-II:C via X2)
Wirkung auf Plasmozytome (Plasmozytome): zeigen eine Wirkung

NCC(=O)NCC(=O)NCC(=O)NCC(=O)O[Si](OC(=O)CNC(=O)CNC(=O)CNC(=O)CN)(c1ccccc1)c1ccccc1 [Diphenyl bis(tetraglycyl)silylester]
Wirkung auf Plasmozytome (Plasmozytome): zeigen eine Wirkung

N[C@@H](Cc1ccccc1)C(=O)N[C@@H](Cc1ccccc1)C(=O)N[C@@H](Cc1ccccc1)C(=O)N[C@@H](Cc1ccccc1)C(=O)N[C@@H](Cc1ccccc1)C(=O)N[C@@H](Cc1ccccc1)C(=O)O[Si](OC(=O)[C@H](Cc1ccccc1)NC(=O)[C@H](Cc1ccccc1)NC(=O)[C@H](Cc1ccccc1)NC(=O)[C@H](Cc1ccccc1)NC(=O)[C@H](Cc1ccccc1)NC(=O)[C@@H](N)Cc1ccccc1)(c1ccccc1)c1ccccc1 [Diphenyl bis(hexaphenylalanyl)silylester] (I: H-FFFFFF / II: H-FFFFFF; linker I:C-II:C via X2)
Wirkung auf Plasmozytome (Plasmozytome): zeigen eine Wirkung
